The values that follow come from US20090123389A1, “Methods for modulating Th17 cell development in the treatment and prevention of cellulite” (priority 2007, published 2009).

Experiment [1] concerns CD4+ CD25− T cells. In words: Th17 differentiation / IL-17 expression of activated CD4+ CD25− T cells (TGFβ plus IL-6). It counts as cell-based, mouse. Particulars: for inhibition of IL-17 expression by HPLC-purified enantiomers: TGFβ plus IL-6, day 4, compared with racemic mix. The protocol: Low doses of halofuginone (HF) were tested to determine the ability of HF to enhance Treg differentiation, while suppressing Th17 differentiation. Naïve CD4+ T cells (CD4+ CD25−) were isolated from the spleen and peripheral lymph nodes of C57B/6 mice. T cells were then activated using anti-CD3 (0.3 μg/ml) and anti-CD28 (0.5 μg/ml) antibodies either in media alone (row 1, 4), TGFβ alone (3 ng/ml—row 2, 5) or TGFβ (3 ng/ml) plus IL-6 (30 ng/ml) (row 3, 6). […] T cells were cultured for 3 days and CD25 and Foxp3 expression (Treg marker genes) was determine by FACS staining and flow cytometric analyses. Simultaneously, T cells were harvested and re-stimulated for 4 hours using phorbol myristic acetate (PMA; 10 nM), Ionomycin (1 μM) and cytokine secretion was prevented using brefeldin A (20 μg/ml). Following stimulation, the production of IL-17 and IFNγ were determined by intracellular staining and analyzed via flow cytometry.
The dose-response of HF on CD4+ T cell proliferation, activation (i.e. CD25 upregulation) and differentiation to Th1, Th2 and Th17 lineages were evaluated. Purified murine naïve CD4+ CD25− T cells were activated using anti-CD3 (0.3 μg/ml) and anti-CD28 (0.5 μg/ml) antibodies and varying amounts of HF was added to each T cell culture condition (1.25 nM-40 nM). CD4+ T cell proliferation was monitored by CFSE dilution on day 3-post activation and CD25 expression was evaluated by FACS staining 2 days after activation. For T cell differentiation experiments, naïve T cells were activated as above in the presence of Th1 (IL-12 (20 ng/ml) plus anti-IL-4 (1.5 μg/ml)), Th2 (IL-4 (50 ng/ml) plus anti-IFNγ (0.5 mg/ml)) or Th17 (TGFβ (3 ng/ml) plus IL-6 (30 ng/ml)) polarizing conditions plus titrating amounts of HF (1.25 nM-40 nM) or MAZ1310 (40 nM). […] All cytokine expression was determined by intracellular staining following PMA+Ionomycin+Brefeldin A re-stimulation and all data was normalized to control (MAZ1310)-treated cells. […] Biol., vol. 80:1-8 (2006).
(§1) Cytokines, antibodies and T cell culture: Purified CD4^+ CD25^− T cells were activated in vitro as previously described (I. M. Djuretic et al., Nat Immunol 8, 145 (2007)) using 0.3 μg/ml hamster anti-mouse CD3 (clone 145-2C11) (ATCC—Manassas, Va.) and 0.5 μg/ml hamster anti-mouse CD28 (BD Pharmingen, San Jose, Calif.). Activated cell cultures were differentiated using the following combinations of cytokines and antibodies: iTreg=recombinant human TGFβ1 (3 ng/ml; R&D systems, Minneapolis, Minn.), Th17=TGFβ1 (3 ng/ml) plus recombinant mouse IL-6 (30 ng/ml, R&D systems). Th1 and Th2 differentiation was performed as previously described. (I. M. Djuretic et al., Nat Immunol 8, 145 (2007)). Human IL-2 supernatant (National Cancer Institute) was used in culture at 0.01 U/ml and was added at 48 hours-post activation when T cells were split into tissue culture wells lacking CD3 and CD28 antibodies, with the exception of Th17 cultures that were maintained in the absence of IL-2. All reagents were added at the time of T cell activation and again at 48-hours post activation unless indicated otherwise. For some experiments, purified CD4^+ CD25^− T cells, CD8^+ T cells or B cells were labeled with 1 μM CFSE (Invitrogen) prior to activation in accordance with manufacturers instructions.
MAZ1310 was generated by chemical derivatization of halofuginone and was used at equal concentrations as a negative control.

A further experiment relates to TGFβ signaling. In words: TGFβ signaling in T and B cells (Smad phosphorylation, lymphocyte responses to TGFβ). It counts as cell-based, mouse. Particulars: HF 10 nM (2.5-40 nM for Smad); SB-431542 10 μM. The protocol: DMSO, 10 nM HF, 10 nM MAZ1310 or 10 μM SB-431542 was added as indicated at the time of activation and intracellular cytokine staining was performed on expanded T cells on day 5 as in FIG. 14B
FIG. 15B is an illustration depicting the analysis of CD8^+ T cells that were activated in the presence or absence of TGFβ and cultured with DMSO, 10 nM HF, 10 nM MAZ1310 or 10 μM SB-431542. Expanded cells were restimulated on day 5 and intracellular staining was performed as above.
FIG. 15C is an illustration depicting the analysis of CFSE-labeled B cells that were activated by LPS stimulation in the presence or absence of TGFβ plus DMSO, 10 nM HF, 10 nM MAZ1310 or 10 μM SB-431542. Intracellular IL-6 production in B cells re-stimulated with PMA plus ionomycin, or cell-surface IgA expression was determined 4 days after activation by FACS analyses.
T cells were then activated in the presence or absence of 3 ng/ml TGFβ. Whole cell extracts were prepared after 1 hour of stimulation and western blot analyses were performed using the indicated antibodies.
Western blotting: Whole cell lysates were generated from T cells activated for the indicated times. For STAT3 and Smad2/3 western blots cells were harvested, washed in PBS and lysed in 50 mM Tris, pH 7.4, 0.1% SDS, 1% Triton-×100, 140 mM NaCl, 1 mM EDTA, 1 mM EGTA supplemented with protease inhibitors tablets (Roche—Germany), 1 mM NaF and 1 mM Na3VO4. […]

Experiment [2] has as its system CD4+ CD25− T cells. In words: CD4+ T cell proliferation, CD25 upregulation, cytokine production, Th1/Th2/iTreg differentiation. It counts as cell-based, mouse. Particulars: titrating concentrations of tunicamycin. The protocol:
The dose-response of HF on CD4+ T cell proliferation, activation (i.e. CD25 upregulation) and differentiation to Th1, Th2 and Th17 lineages were evaluated. Purified murine naïve CD4+ CD25− T cells were activated using anti-CD3 (0.3 μg/ml) and anti-CD28 (0.5 μg/ml) antibodies and varying amounts of HF was added to each T cell culture condition (1.25 nM-40 nM). CD4+ T cell proliferation was monitored by CFSE dilution on day 3-post activation and CD25 expression was evaluated by FACS staining 2 days after activation. For T cell differentiation experiments, naïve T cells were activated as above in the presence of Th1 (IL-12 (20 ng/ml) plus anti-IL-4 (1.5 μg/ml)), Th2 (IL-4 (50 ng/ml) plus anti-IFNγ (0.5 mg/ml)) or Th17 (TGFβ (3 ng/ml) plus IL-6 (30 ng/ml)) polarizing conditions plus titrating amounts of HF (1.25 nM-40 nM) or MAZ1310 (40 nM). The percentage of Th17 cells, (IL-17^+ IFNγ^−) was evaluated on day 3 following activation, whereas the abundance of Th1 cells (IFNγ^+ IL-4) and Th2 cells (IL-4^+ IFNγ^−) was determined 5 days following activation. All cytokine expression was determined by intracellular staining following PMA+Ionomycin+Brefeldin A re-stimulation and all data was normalized to control (MAZ1310)-treated cells. […] Biol., vol. 80:1-8 (2006).
as §1
Detection of cytokine production: Cytokines secreted into media supernatant were measured using the mouse Th1/Th2 cytometric bead array (CBA, BD Pharmingen) in accordance with manufacturers instructions. Briefly, CD4^+ CD25^− T cells were activated in anti-CD3/anti-CD28-coated tissue culture wells and supernatants were collected at the indicated times. For detection of intracellular cytokines in murine cells, cultured T or B cells were stimulated with 10 nM PMA (Sigma) and […] (Sigma) for 4-5 hours in the presence of […] (Sigma). Stimulated cells were harvested, washed with PBS and fixed with PBS plus 4% paraformaldehyde at room temperature for 20 minutes. […]

For experiment [3], the system named is unfolded protein response (Xbp-1 splicing). In words: Xbp-1 splicing / ER stress response in activated T cells. Particulars: tunicamycin 1 μg/ml or 10 nM HF, 4 hours.

In the case of `O=C(CC1NCCCC1O)Cn1cnc2cc(Br)c(Cl)cc2c1=O` (single isomer, unassigned) [D-enantiomer of HF], the “inhibition of IL-17 expression by HPLC-purified enantiomers” value in the experiment with CD4+ CD25− T cells [1] was “more potently than a racemic mix”. For the compound `O=C(CC1NCCCC1O)Cn1cnc2cc(Br)c(Cl)cc2c1=O` (single isomer, unassigned) [L-enantiomer], the “inhibition of IL-17 expression by HPLC-purified enantiomers” value in the experiment with CD4+ CD25− T cells [1] is “completely inactive”. Take `N[C@H](CO)Cc1c[nH]c2ccccc12` [L-tryptophanol]: the IL-17 production result in the experiment with CD4+ CD25− T cells [1] (0.2 mM L-tryptophanol, TGFβ plus IL-6) is recorded as “impaired IL-17 production”. For the compound `CC(C)(C)OC(=O)N1CCC[C@H](O)[C@H]1CC(=O)Cn1cnc2cc(Br)c(Cl)cc2c1=O` [MAZ1310], the “activity of HF derivative used as negative control” value in the experiment on CD4+ CD25− T cells [1] (used at equal concentrations as HF) was “inactive”.

As to `NC(=O)c1ccc(-c2nc(-c3ccc4c(c3)OCO4)c(-c3ccccn3)[nH]2)cc1` [SB-431542], the “TGFβ-induced Smad phosphorylation and other lymphocyte responses to TGFβ” value in the experiment with TGFβ signaling is listed as “abrogated all responses to TGFβ”. For tunicamycin, the “IL-17 expression in T cells” value in the experiment with CD4+ CD25− T cells [1] (titrating concentrations of tunicamycin) is recorded as “little influence”. For the same compound, the “Th1 and Th2 differentiation” value in the experiment on CD4+ CD25− T cells [2] is “preferentially impaired”. Besides, the Xbp-1 splicing result in experiment [3] is on record as “together with Xbp-1 splicing”.
